US9861616B2, “Methods for treating respiratory diseases and formulations therefor” (priority 2013, dated 2018)

Experiments:
[1] = Intrapulmonary penetration into ELF and AM, Phase 1 clinical study; type: in vivo, healthy adult subjects; details: 400 mg orally daily for 5 days, Day 5, 24 hour period
Description: CEM-101 is evaluated for the treatment of patients with community-acquired bacterial pneumonia. The penetration of CEM-101 into the epithelial lining fluid (ELF) and alveolar macrophages (AM) is assessed in a Phase 1 clinical study.
30 subjects received 400 mg of CEM-101 orally daily for 5 days. On Day 5, each subject underwent a single bronchoscopy and bronchoalveolar lavage at 1 of 5 time points (3, 6, 9, 12 or 24 h post-dose) to obtain ELF and AM samples (6 subjects/time point). Plasma samples were collected pre-dose on Days 1 to 5 and serially post-dose on Day 5 and 6. The samples collected were assayed for CEM-101 using LC/MS/MS. Urea in the plasma and ELF was used to correct the ELF CEM-101 concentrations. Noncompartmental pharmacokinetic (PK) analysis using the median concentrations at each time point was used to calculate Day 5 AUC0-24. In addition, a population PK model (PPM) was used to determine Day 5 AUC0-24 for each subject in plasma and ELF. Intrapulmonary penetration of CEM-101 into the ELF and AM was determined by dividing the Day 5 AUC0-24 of each matrix by the Day 5 plasma AUC0-24.

[2] = tested on: P. aeruginosa strains from cystic fibrosis patients; assay: Macrobroth dilution MICs, CF strains; type: cell-based; details: 2 P. aeruginosa strains from cystic fibrosis patients
Description: (§1) Two strains each of mucoid P. aeruginosa (both pyocyanin positive) and […] MRSA (only one strain with gold colonies) isolated from patients at a CF clinic were tested. Additionally, 2 B. cepacia strains were acquired, from Hershey Medical Center. All strains were identified by standard methods. Only one strain per patient was tested. MLVA was done on all strains to examine clonality, and confirmed that examination is not taking place on only one or a few clones. Strains will be stored in skim milk at −70° C. until use.
(§2) Original MICs of each strain to CEM-101 and other comparators were tested by CLSI microdilution methodology. Trays were obtained from Trek, Inc., Cleveland, Ohio. Time-kill macrobroth MIC dilution by CLSI was performed for all synergy testing.

[3] = tested on: B. cepacia strains from cystic fibrosis patients; assay: Macrobroth dilution MICs, CF strains; type: cell-based; details: 2 B. cepacia strains from cystic fibrosis patients
Description: as §1, §2

MRSA SA 2230, SA 2232 = assay: Time-kill macrobroth MICs; type: cell-based, S. aureus
Description: as §2
Two of the MRSA strains were chosen and tested for synergy, together with the 4 Gram-negative strains mentioned above. Broth macrodilution formed the basis of MICs used in time-kill experiments, as detailed below. The kill kinetics of each drug was tested alone by incubating an initial inoculum of 5×10^5 to 5×10^6 cfu/mL with drug concentrations at the MIC, three dilutions above and three dilutions below the MIC (½, ¼ and ⅛×MIC). Viability counts were performed after 0, 3, 6, 12 and 24 h incubation at 37° C. in a shaking water bath by plating onto trypticase soy-5% sheep blood agar plates.

CC[C@H]1OC(=O)[C@@](C)(F)C(=O)[C@H](C)[C@@H](O[C@@H]2O[C@H](C)C[C@H](N(C)C)[C@H]2O)[C@](C)(OC)C[C@@H](C)C(=O)[C@H](C)[C@H]2N(CCCCn3cc(-c4cccc(N)c4)nn3)C(=O)O[C@]12C [CEM-101, solithromycin]
exposure in AM compared to plasma [1]: > 180 times
exposure in ELF compared to plasma [1]: > 8 times
MIC Range [2]: 64 µg/mL
MIC Range [3]: 8 to 32 µg/mL
Time-kill Macrobroth MIC (MRSA SA 2230, SA 2232; strain SA 2230): 0.125 µg/mL
Time-kill Macrobroth MIC (MRSA SA 2230, SA 2232; strain SA 2232): 0.125 µg/mL
